Experimental data as given in a melting point compilation (Tetko et al.).

| melting point [°C] | Structure (SMILES) |
| --- | --- |
| 180 to 185 | CC1NC(C(=O)O)CS1 (mixture of isomers) |
| 135 | CC(=O)Nc1ccc(OCC(O)CNC(C)C)cc1 (stereo not given) |
| 150 to 153 | O=C(O)C=CC(=O)Nc1cccc2ccccc12 |
| 72 to 74 | CC(=O)c1c(-c2c(Cl)cccc2Cl)noc1C |
| 300 | O=C(O)c1cc(O)[nH]c(=O)c1 |
| 209 to 211 | Cc1cc(C(=O)O)n(C)n1 |
| 20 | CCCCCCCCc1ccc(N)cc1 |
| 148 | O=C(CCl)c1cc(C(=O)CCl)c([N+](=O)[O-])cc1[N+](=O)[O-] |
| 70 to 74 | O=C(O)[C@H]1COCN1C(=O)OCc1ccccc1 |
| 63 to 64 | Brc1cccc(Oc2ccccn2)c1 |
| 196 to 199 | CC(C)(C)OC(=O)N[C@@H](Cc1c[nH]cn1)C(=O)O |
| 64 | CC(Oc1ccc(Oc2cnc3cc(Cl)ccc3n2)cc1)C(=O)OCC1CCCO1 (stereo not given) |
| 109 | CCCCCCCCc1ccc(NC(=O)c2ccc(CC)cc2)cc1 |
| 169 | O=C(O)c1nsc(Cl)c1Cl |
| 199 | CCOc1ccc2[nH]c(=S)sc2c1 |
| 143 to 146 | Cc1ccc(C=CC(=O)c2cccc([N+](=O)[O-])c2)cc1 |
| 243 | Cc1cc(NS(=O)(=O)c2ccc(N)cc2)nc(C)n1 |
| 183 to 185 | O=[N+]([O-])c1ccc(-c2nnc3n2CN(c2ccccc2[N+](=O)[O-])CS3)cc1 |
| 203 | O=[N+]([O-])c1ccc(N/N=C2\Cc3ccccc32)c([N+](=O)[O-])c1 |
| 194 to 195 | Cc1cc(C)n(N=Cc2ccccc2)c(=O)c1C#N |
| 300 to 303 | CC1(C)C(=O)N(O)C(C)(C)C(=O)N1O |
| 258 to 262 | CCCC(C)(N)P(=O)(O)O (stereo not given) |
| 176 | Cc1ccc(C(=O)c2csc(S(N)(=O)=O)c2)cc1 |

| melting point [°C] | Structure (SMILES) |
| --- | --- |
| 93 | Cc1cccc(N(C)C(=S)Oc2ccc3c(c2)C2CCC3C2)c1 (stereo not given) |
| 31 | CCCCCCCCCCC(=O)CC |
| 51 to 55 | C[C@H](O)C(N)=O |
| 154 to 157 | CCOC(=O)c1cc2cc(C=O)c(N)cc2[nH]c1=O |
| 42 | COC(=O)c1ccc(Br)c(C)c1 |
| -115 | CCCCC(CC)CC |
| 96 to 97 | COc1cc(C)c2c(c1)CCC(=Cc1ccccc1)C2=O |
| 260 | Nc1ncnc2c1ncn2C1OC2COP(=O)(O)OC2C1O (stereo not given) |
| 174 | Cc1cc(C(F)(F)F)n2nc(-c3ccccc3)cc2n1 |
| 170 to 172 | N#Cc1cccc(Cn2c(=O)oc3ccccc32)c1 |
| 113 to 114 | Cn1nc(-c2cccs2)cc1C(=O)Cl |
| 88.5 to 89.5 | Ic1ccc(OC2CCOCC2)cc1 |
| 261 | CC12CCc3c(ccc4cc(O)ccc34)C1(C)CCC2=O (stereo not given) |
| 130 | Oc1ccc(Cl)c2cccnc12 |
| 110 | NS(=O)(=O)c1ccc(SCCO)c(F)c1 |
| 135 | O=Cc1cccc2c(Br)ccc([N+](=O)[O-])c12 |
| 178 to 180 | Cc1nc(-c2ccc(S(=O)(=O)NN)cc2)c(-c2ccc(S(=O)(=O)NN)cc2)o1 |
| 113 to 118 | O=C(O)C(O)C(O)C(OC1OC(CO)C(O)C(O)C1O)C(O)CO (stereo not given) |
| 105 | CC1CCC2C1C1C(CCC2(C)O)C1(C)C (stereo not given) |
| 162 | CCCCc1c(C)nc(N)nc1Cl |
| 102 | O=C(C(=O)c1cccc2ccccc12)c1ccccc1 |
| 20 | Cc1cc(F)ccc1[N+](=O)[O-] |
| 240 to 242 | CCCC(NC(=O)C(C)N)C(=O)O (mixture of isomers) |

| melting point [°C] | Structure (SMILES) |
| --- | --- |
| 189 to 190 | O=c1[nH]cc(C(F)(F)F)cc1[N+](=O)[O-] |
| -13 | C=CCCCCCCCCCCC |
| 84 | CC(=O)c1csc(-c2ccccc2)n1 |
| 173 to 177 | COC(=O)C1=C(C)NC(C)=C(C(=O)OC)C1c1ccc(OC)cc1 |
| -56 | C1=CCCCCC1 |
| 153 to 154 | CC(C)(NO)C(=NO)c1ccccc1 |
| 140 | Cc1ccc(N=Nc2cc(C(C)C)c(N=Nc3ccc(C)cc3)cc2C)cc1 |
| -50 | CC(C)C(C)N (stereo not given) |
| 155 | O=c1[nH]n(C2C=CC3C4C=CC(C4)C32)c(=O)n1-c1ccccc1 (stereo not given) |
| 59.5 | Cc1cc(Br)ccc1N |
| 149 | O=CNCC(=O)O |
| 67 | COCCN1CCCNCC1 |
| 143 to 145 | CCOC(=O)c1c(SC)nn(S(=O)(=O)c2ccc(OC)cc2)c1N |
| 40 | O=C(O)C1CC2CCC1C2 (stereo not given) |
| 83 to 85 | O=C1OC(CO)C(O)C1O (stereo not given) |
| 134 to 137 | CC(C)(C)OC(=O)NN1CCCC1C(=O)O (stereo not given) |
| 178 to 179 | NNc1ncnc2sc3c(c12)CCCC3 |
| 58 to 60 | OCC#Cc1cc(C(F)(F)F)cc(C(F)(F)F)c1 |
| 34 to 36 | c1ccc(-c2cccs2)cc1 |
| 25 | O=C1CCCCCCCCCCCC1 |
| 200 | CC(O)C(C)C(N)C(=O)O (stereo not given) |
| 168 | O=Nc1ccc(O)c(N=O)c1O |
| 129 to 131 | COC(=O)NNC(=O)OC |

| melting point [°C] | Structure (SMILES) |
| --- | --- |
| 94 | O=C(O)C(O)c1ccc(F)c(F)c1 (stereo not given) |
| 205 | O=C(CC(NC(=O)OCC1c2ccccc2-c2ccccc21)C(=O)O)NC(c1ccccc1)(c1ccccc1)c1ccccc1 (stereo not given) |
| 159 to 163 | Cc1c(C)c(C)c(CO)c(C)c1C |
| 130 | O=C1OS(=O)(=O)c2ccccc21 |
| 200 to 201 | C/C(=N\O)c1cc(C(C)(C)C)c(O)c(C(C)(C)C)c1 |
| -88.4 | CC1(C)CCC(C)(C)C1 |
| 36 | CCOC(=O)C1CC(=O)C(=C(O)C2CC2)C(=O)C1 (stereo not given) |
| 192 to 193 | Cc1onc(-c2ccccc2)c1C(=O)O |
| 67 to 69 | CNCc1ccc(-n2ccnc2)cc1 |
| 145 | CCOC(=O)Nc1ccc2cc3ccc(NC)c(CO)c3nc2c1 |
| 57 to 58 | CC(=O)Oc1c(-c2ccccc2)n(C(C)=O)c2cc([N+](=O)[O-])c(/C(Cl)=C/c3ccccc3)cc12 |
| 118 | CCOC(=O)c1nn(-c2ccc(Cl)cc2Cl)c(-c2ccc([N+](=O)[O-])cc2)c1S(=O)(=O)c1ccccc1 |
| 82 to 83 | c1ccc(-c2nsc(N3CCCNCC3)n2)cc1 |
| 109 | c1ccc2c(c1)CCc1ccccc1CC2 |
| 194 to 195 | Cc1nc(I)c(I)[nH]1 |
| 73 to 75 | CNCc1c(C)nc2ccccn12 |
| 109 | COc1ccc2c(c1)CCC2=O |
| 133 | ON=C(c1ccccc1)c1ccc(Cl)cc1 |
| 30 | CCCCCCc1ccc(-c2ccccc2)cc1 |
| 128 | Cc1c(C)c(C)c(O)c(C)c1C |
| 131 | N=c1sc(C(=O)c2cccs2)nn1-c1ccncc1 |
| 75 | CC(C)(O)C12CC3CC(CC(C3)C1)C2 |
| 243 to 245 | CC1NC(C(=O)O)Cc2c1[nH]c1ccccc21 (stereo not given) |

| melting point [°C] | Structure (SMILES) |
| --- | --- |
| 57 | CSc1ccc(N)cc1C(F)(F)F |
| 86 to 88 | Cc1ccc(N2CCCC2=O)cc1 |
| 182 | O=C(O)CS(=O)(=O)CC(=O)O |
| 218 | Cc1ccc(NN=C2C(=O)NN=C2c2c(O)c3ccccc3n(C)c2=O)cc1 |
| 143 to 146 | O=C(O)c1ccc2c(c1)OCCCO2 |
| 140 | C(=C(c1ccccc1)c1ccccc1)=C(c1ccccc1)c1ccccc1 |
| 97 | CC(=O)O[C@@H](C(=O)O)c1ccccc1 |
| 116 to 120 | O=C1CC2C(CC(OC(=O)c3ccccc3)C2CO)O1 (single isomer, unassigned; (-)) |
| 44 to 46 | Cc1cc(CO)nn1-c1ccccn1 |
| 45 to 46 | Cc1cc(Br)ccc1N=C=S |
| 62 | CCNc1cccc(O)c1 |
| 106 | O=C(CCBr)N1CCN(C(=O)CCBr)CC1 |
| 48 to 50 | c1ccc2c(c1)OCCOCCOCCO2 |
| 271 to 274 | O=C(O)c1cc(Br)c(O)c(Br)c1 |
| 51 | Cc1onc(-c2c(F)cccc2Cl)c1C(=O)Cl |
| 180 | CC12CCC(/C(=C/N(OC(=O)c3ccc([N+](=O)[O-])cc3)c3ccccc3)C1=O)C2(C)C (stereo not given) |
| 114 | CCCCCCCCCCc1ccc(NC(=O)c2ccc(C)cc2)cc1 |
| 94 to 96 | C#CCn1ccc2cc(C(=O)OC)ccc21 |
| 49 | COC(=O)C=Cc1cccs1 |
| 38 | O=C(c1ccccc1)c1cccnc1 |
| 105 to 107 | CSC(=NS(=O)(=O)c1ccccc1)SC |
| 212 to 213 | Cc1nc(/C(C#N)=C\c2ccco2)sc1/N=N/c1ccccc1[N+](=O)[O-] |

| Structure (SMILES) | melting point [°C] |
| --- | --- |
| COc1ccccc1OC | 22.5 |
| Nc1cccc2c1Cc1ccccc1-2 | 126 |
| CC(Oc1cc(Cl)c(Cl)cc1Cl)C(=O)O (stereo not given) | 182 |
| C=CC1CC=CCC1 (stereo not given) | -109 |
| CCC1(CC)C(=O)CCNC1=O | 102 |
| COc1ccccc1OP(=O)(Oc1ccccc1OC)Oc1ccccc1OC | 91 |
| O=C(CCl)Nc1ccc(Cl)cc1C(=O)c1ccccc1Cl | 161 to 163 |
| Cc1ccccc1N1CCNCC1 | 48 to 52 |
| O=C(CBr)c1ccc(F)cc1 | 47 |
| CCOC(=O)C1=C(NC(=O)CCl)Oc2c(c(=O)oc3ccccc23)C1c1ccc(Br)cc1 (stereo not given) | 158 |
| CCCCCc1cc(O)c2c(c1)OC(C)(C)C1CCC(C)=CC21 (stereo not given) | 200 |
| FCCl | -133 |
| CN1C(=O)CN=C(c2ccccc2F)c2cc(Cl)ccc21 | 296 |
| CCN1C(=O)OC(C)(C)C1=O | 76.5 |
| COC(=O)CC(=O)CCl | 14 to 16 |
| C=CC1CN2CCC1CC2C(=O)c1ccnc2ccc(OC)cc12 (stereo not given) | 108 |
